Patent US5709901A (priority 1994, dated 1998)
Entries after “also recorded” stand apart in the source; their conditions may differ. Square brackets hold non-standard residues; d marks the D form. Peptide text beside a SMILES is read from it. * marks the point of attachment. Sta = CC(C)C[C@H](N)[C@@H](O)CC(=O)O; Isovaleryl = CC(C)CC(=O)*

B1: papain (protein, UniProt P00784 134-345, looked up)
Papain: IPEYVDWRQKGAVTPVKNQGSCGSCWAFSAVVTIEGIIKIRTGNLNEYSEQELLDCDRRSYGCNGGYPWSALQLVAQYGIHYRNTYPYEGVQRYCRSREKGPYAAKTDGVRQVQPYNEGALLYSIANQPVSVVLEAAGKDFQLYRGGIFVGPCGNKVDHAVAAVGYGPNYILIKNSWGTGWGENGYIRIKRGTGNSYGVCGLYTSSFYPVKN

How the values were obtained:
PF-2 = assay type: biochemical, Bacillus sp. KSM-PF2; details: for residual activity of PF-2 relative to control as 100: pH 7
PF-1 = assay type: biochemical, Bacillus sp. KSM-PF1; details: for residual activity of PF-1 relative to control as 100: pH 7
[1] = Meat tenderization test, 15-mm thick round (Example 4, FIG. 2); details: 15-mm thick meat, 20° C., per 10 g: PF-1 100 U, papain 10 U or 1 U, elastase 250 U; for tenderizing effect (in words): PF-2 45 U
Experimental: The same meat as used in Example 3 was sliced perpendicular to muscular fibers to 15-mm thick pieces by a meat slicer. A maximum homogeneous portion of the sliced meat was molded into an about 30 g rod. The molded meat was uniformly sprinkled with the enzyme powder, covered with a wrap, and then allowed to stand at room temperature (20° C.) for a predetermined period of time. The meat thus processed was then grilled over a 200° C. hot plate for 3 minutes on each side. The meat thus grilled was cut into 2-cm wide strips which were then measured for shear force value in the same manner as in Example 3. As comparative enzymes, the same papain powder (available from Amano Co., Ltd.) and elastase powder (reagent available from Sigma Co., Ltd.) as used in Example 3 were subjected to the same meat tenderization test as mentioned above.

[2] = Meat tenderization test, 5-mm thick round (Example 3, FIG. 1); details: for tenderizing effect (in words) / time in which the tenderizing effect is exerted: 5-mm thick meat, 20° C., per 10 g: PF-1 100 U, papain 10 U or 1 U, elastase 250 U; for tenderizing effect (in words): PF-2 45 U; for time to overtenderizing effect: 5 mm or 15 mm
Experimental: The metalloprotease of the present invention preferably tenderizes round in such a manner that the shear force value of the round thus tenderized is from 20% to 70% (preferably from 25% to 65%, particularly from 30% to 50% of that of the untenderized round (round which has not been processed with the metalloprotease of the present invention) when the round has a thickness of 5 mm. The shear force value as defined herein is determined by subjecting the meat sample to cutting by a meat shear (Warner Bratzler Type 3000, available from Warner Bratzler Corp.). The meat sample is obtained by subjecting round to enzymatic processing at a temperature of 20° C., and then grilled-the round thus processed on both sides thereof at 200° C. (grilled on one side for 1 minute and one the other side for 45 seconds).
As the meat to be tested there was used a low grade round (100 g) imported from Australia. The meat was sliced to 5-mm thick pieces by a meat slicer. Prominent strings were removed. About 20 g of the sliced meat was then molded. The molded meat was uniformly sprinkled with the enzyme powder, covered with a wrap, and then allowed to stand at room temperature (20° C.) for a predetermined period of time. The meat thus processed was then grilled over a 200° C. hot plate for 1 minute on one side and for 45 seconds on the other side. The meat thus grilled was then cut into 3-cm wide strips. The strips were then measured for shear force value (SFV) by means of a meat shear (Warner Bratzler Type 3000, available from Warner Bratzler Corp.). As comparative enzymes, a papain powder (available from Amano Co., Ltd.) and an elastase powder (reagent available from Sigma Co., Ltd.) were subjected to the same meat tenderization test as mentioned above.

[3] = Meat tenderization test of conventional proteases (background); details: for time to overtenderize the meat: 0.1 based on the weight of the meat
From the text: As a meat tenderizer there has been heretofore used a protease. One of the most frequently used meat tenderizers is papain derived from papaya. However, papain is disadvantageous in that it is hard to control in tenderization (i.e., control over the progress of tenderization to a proper level) and its use is restricted by the added amount thereof and the processing time. In fact, papain was subjected to meat tenderization test. As a result, even when used in an amount as extremely small as 0.1 based on the weight of the meat to be tested, this enzyme overtenderized the meat within 1 hour at room temperature and in a period of time as short as 24 hours at a temperature as low as 4° C. The meat thus overtenderized was too unsavory to be served. This is because proteases derived from plants have a low substrate specificity.
On the other hand, a method has been proposed which comprises the specific decomposition of a connective tissue in a meat with elastase, which has a high substrate specificity, to tenderize the meat (JP-A-4-197156 (The term "JP-A" as used herein means an "unexamined published Japanese patent application"), JP-A-5-276899). However, this approach is disadvantageous in that elastase is hard to produce and must be used in a relatively large amount and requires a prolonged processing time to exert desired effects as compared with the foregoing proteases. It has also been point out that elastase cannot tenderize a meat sufficiently even if the added amount thereof and the processing time are increased (JP-A-6-169729).

Row | Molecule | inhibition of PF-2 activity (in words) (PF-2) | residual activity of PF-2 relative to control as 100 (PF-2) | inhibition of PF-1 activity (in words) (PF-1) | residual activity of PF-1 relative to control as 100 (PF-1) | other results
1 | O[C@H](CS)[C@H](O)CS (racemic) [DTT, dithiothreitol] | not inhibited | 81% | not inhibited | 70% | –
2 | [Ca+2].[Cl-].[Cl-] [CaCl2] | – | 76% | – | 104% | –
3 | [Cl-].[Cl-].[Co+2] [CoCl2] | – | 78% | – | 103% | –
4 | [Cl][Cu][Cl] [CuCl2] | – | 20% | – | 37% | –
5 | O=C(O)CN(CCN(CC(=O)O)CC(=O)O)CC(=O)O [EDTA, ethylenediaminetetraacetic acid] | inhibited | 30% | inhibited | 45% | –
6 | [Cl][Fe][Cl] [FeCl2] | – | 28% | – | – | –
7 | [Cl][Fe]([Cl])[Cl] [FeCl3] | – | 9% | – | 98% | –
8 | [Cl][Hg][Cl] [HgCl2] | – | 62% | – | 40% | –
9 | [Cl-].[Cl-].[Mg+2] [MgCl2] | – | 74% | – | 107% | –
10 | [Cl][Mn][Cl] [MnCl2] | – | 62% | – | 103% | –
11 | O=C(O)CI [Monoiodoacetic acid, monoiodoacetic acid] | not inhibited | 100% | not inhibited | 105% | –
12 | [Cl][Ni][Cl] [NiCl2] | – | 28% | – | 92% | –
13 | O=S(=O)(F)Cc1ccccc1 [PNSF, phenylmethanesulfonylfluoride] | not inhibited | 80% | not inhibited | 124% | –
14 | CC(C)CC(=O)N[C@H](C(=O)N[C@H](C(=O)N[C@@H](CC(C)C)[C@@H](O)CC(=O)N[C@@H](C)C(=O)N[C@@H](CC(C)C)[C@@H](O)CC(=O)O)C(C)C)C(C)C [Pepstatin, pepstatin] (Isovaleryl-VV[Sta]A[Sta]-OH) | not inhibited | 100% | not inhibited | 108% | –
15 | [Cl-].[Cl-].[Zn+2] [ZnCl2] | – | 58% | – | 88% | –
16 | elastase | – | – | – | – | tenderizing effect (in words) ([1]; listed as elastase powder): some tenderizing effect; also recorded: a proper tenderness cannot be obtained; time in which the tenderizing effect is exerted [1]: 24 h; tenderizing effect (in words) ([2]; listed as elastase powder): some tenderizing effect; also recorded: a proper tenderness cannot be obtained; time in which the tenderizing effect is exerted [2]: 24 h; tenderizing effect, summary of Examples 3 and 4 (in words) ([2]; meat thickness either 5 mm or 15 mm, up to 24 hours): cannot exert an effect of properly tenderizing the meat; tenderizing effect (in words) ([3]; reagent grade elastase): slightly tenderized; also recorded: the tenderness thus obtained was insufficient
17 | leupeptine [Leupepsin] | not inhibited | 91% | not inhibited | 82% | –
18 | B1 | – | – | – | – | tenderizing effect (in words) [1]: overtenderizing effect; time in which the tenderizing effect is exerted [1]: several; tenderizing effect (in words) [2]: overtenderizing effect; time in which the tenderizing effect is exerted [2]: several; time to overtenderizing effect ([2]; used in a large amount): several minutes to scores of minutes; time to overtenderizing effect ([2]; used in a reduced amount): several hours; time to overtenderize the meat ([3]; 4° C.): 24 h; time to overtenderize the meat ([3]; room temperature): ≤ 1 h
